Structures can show the parent of a compound that is named as a salt. Where two headings read alike, the source gives them in different places.
Key:
Format in all cases: cell-based, human
[1] = tested on: SMN2 mRNA; test: Splicing RT-qPCR gene panel, SMN2 canonical junction (CJ) mRNA; settings: Homo sapiens, Tables 4A/4B, read-out: SMN2 (IC50, decrease in CJ mRNA, gene panel)
In short: (§1)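 Cells (A673 in DMEM/10% FBS, K562 in IMDM/10% FBS) got compound for 24 h, top dose 10 uM, 11 points, 3-fold steps, DMSO ≤0.25%. Lysates went to RT-qPCR for the canonical exon-exon junction; ΔΔCt against housekeeper and DMSO gave RQ, then percentage response.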

[2] = tested on: Target C mRNA; test: Splicing RT-qPCR gene panel, Target C canonical junction (CJ) mRNA; settings: Homo sapiens, Tables 4A/4B, read-out: Target C (IC50, decrease in CJ mRNA, gene panel)
In short: as §1

[3] = tested on: HTT mRNA; test: Splicing RT-qPCR gene panel, HTT canonical junction (CJ) mRNA; settings: Homo sapiens, Tables 4A/4B, read-out: HTT (IC50, decrease in CJ mRNA, gene panel)
In short: as §1

[4] = tested on: MYB mRNA; test: Splicing RT-qPCR assay, MYB canonical (CJ) and alternative (AJ) junction mRNA; settings: Homo sapiens; for AC50: read-out: MYB AJ (AC50, increase in alternative junction mRNA)
In short: (§2)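 Read-out is the abundance of canonical-junction versus new alternative-exon-junction mRNA, determined by real-time qPCR after cDNA synthesis and normalized to a housekeeping gene. It is measured in A673 or K562 cells exposed to compounds for 24 h, top dose 10 uM.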

[5] = tested on: HTT mRNA; test: Splicing RT-qPCR assay, HTT canonical (CJ) and alternative (AJ) junction mRNA; settings: Homo sapiens, A673 or K562 cells, 24 hours compound treatment; for IC50: 24 h, read-out: HTT CJ (IC50, decrease in canonical junction mRNA); for AC50: read-out: HTT AJ (AC50, increase in alternative junction mRNA)
In short: as §2

[6] = 24 h, A673 or K562 cells, 24 hours compound treatment, RT-qPCR
[7] = 24 h, A673 or K562 cells, 24 hours compound treatment, RT-qPCR, read-out: MYB CJ (IC50, decrease in canonical junction mRNA)
[8] = Tables 4A/4B, canonical junction qPCR panel, read-out: MYB (IC50, decrease in CJ mRNA, gene panel)

Compound | IC50 [1] [µM] | IC50 [2] [µM] | IC50 [3] [µM] | AC50 [4, 6] [µM] | IC50 [4, 7] [µM] | IC50 [4, 8] [µM] | IC50 [5] [µM] | AC50 [5] [µM]
Cc1cn2cc(NC(=O)c3ccc(N4C[C@@H](C)N[C@@H](C)C4)c4cn(C)nc34)cc(F)c2n1 [Compound 326, 4-[(3R,5S)-3,5-dimethylpiperazin-1-yl]-N-{8-fluoro-2-methylimidazo[1,2-a]pyridin-6-yl}-2-methylindazole-7-carboxamide] | < 0.1 | 1 to 10 | 0.1 to 1 | < 0.1 | < 0.1 | < 0.1 | 0.1 to 1 | 0.1 to 1
Cc1cn2cc(NC(=O)c3ccc(N4CCC(CN)C4)c4cn(C)nc34)cc(F)c2n1 (stereo not drawn) [Compound 327, 4-[3-(aminomethyl)pyrrolidin-1-yl]-N-{8-fluoro-2-methylimidazo[1,2-a]pyridin-6-yl}-2-methylindazole-7-carboxamide] | 0.1 to 1 | > 10 | > 10 | 0.1 to 1 | 0.1 to 1 | 0.1 to 1 | > 10 | > 10
CC(=O)NC1CCN(c2ccc(C(=O)Nc3cc(F)c4nc(C)cn4c3)c3nn(C)cc23)CC1 [Compound 328, 4-(4-acetamidopiperidin-1-yl)-N-{8-fluoro-2-methylimidazo[1,2-a]pyridin-6-yl}-2-methylindazole-7-carboxamide] | 0.1 to 1 | > 10 | > 10 | > 10 | 1 to 10 | 1 to 10 | > 10 | > 10
Cc1cn2cc(NC(=O)c3ccc(N4CCNCC4)c4cn(CC(O)CO)nc34)cc(F)c2n1 (stereo not drawn) [Compound 329, 2-(2,3-dihydroxypropyl)-N-{8-fluoro-2-methylimidazo[1,2-a]pyridin-6-yl}-4-(piperazin-1-yl)indazole-7-carboxamide] | 1 to 10 | > 10 | > 10 | > 10 | > 10 | > 10 | > 10 | > 10
CCN(CC)C1CCN(c2ccc(C(=O)Nc3cc(F)c4nc(C)cn4c3)c3nn(CCOC)cc23)C1 (stereo not drawn) [Compound 330, 4-(3-(diethylamino)pyrrolidin-1-yl)-N-(8-fluoro-2-methylimidazo[1,2-a]pyridin-6-yl)-2-(2-methoxyethyl)-2H-indazole-7-carboxamide compound with 2,2,2-trifluoro-113-ethan-1-one] | < 0.1 | > 10 | > 10 | 0.1 to 1 | 0.1 to 1 | 0.1 to 1 | > 10 | > 10
Cc1nc2c(F)cc(NC(=O)c3ccc(N4CCNCC4)c4cn(C)nc34)cc2n1C [Compound 332, N-(7-fluoro-2,3-dimethyl-1,3-benzodiazol-5-yl)-2-methyl-4-(piperazin-1-yl) indazole-7-carboxamide; trifluoroacetic acid] | > 10 | > 10 | > 10 | > 10 | > 10 | > 10 | > 10 | > 10
Cc1cn2cc(NC(=O)c3ccc(N4CCNCC4)c4cn(C)nc34)c(F)cc2n1 [Compound 333, N-{7-fluoro-2-methylimidazo[1,2-a]pyridin-6-yl}-2-methyl-4-(piperazin-1-yl) indazole-7-carboxamide trifluoroacetate] | < 0.1 | > 10 | 1 to 10 | 0.1 to 1 | 0.1 to 1 | 0.1 to 1 | 1 to 10 | 1 to 10
Cc1cn2cc(NC(=O)c3ccc(N4C[C@@H](C)N[C@@H](C)C4)c4cn(C)nc34)nc(C)c2n1 [Compound 334, N-{2,8-dimethylimidazo[1,2-a]pyrazin-6-yl}-4-[(3R,5S)-3,5-dimethylpiperazin-1-yl]-2-methylindazole-7-carboxamide] | < 0.1 | > 10 | > 10 | 0.1 to 1 | 0.1 to 1 | 0.1 to 1 | > 10 | > 10
Cc1cn2cc(NC(=O)c3ccc(N4CCC(CN)CC4)c4cn(C)nc34)cc(F)c2n1 [Compound 335, 4-[4-(aminomethyl)piperidin-1-yl]-N-{8-fluoro-2-methylimidazo[1,2-a]pyridin-6-yl}-2-methylindazole-7-carboxamide] | 0.1 to 1 | > 10 | > 10 | 1 to 10 | 1 to 10 | 1 to 10 | > 10 | > 10
Cc1cn2cc(NC(=O)c3ccc(N4CCC(C)(N)CC4)c4cn(C)nc34)cc(F)c2n1 [Compound 336, 4-(4-amino-4-methylpiperidin-1-yl)-N-{8-fluoro-2-methylimidazo[1,2-a]pyridin-6-yl}-2-methylindazole-7-carboxamide] | < 0.1 | 0.1 to 1 | 0.1 to 1 | < 0.1 | < 0.1 | < 0.1 | 0.1 to 1 | 0.1 to 1
Cc1cn2cc(NC(=O)c3ccc(N4CCNCC4)c4cn(CCCl)nc34)cc(F)c2n1 [Compound 337, 2-(2-chloroethyl)-N-{8-fluoro-2-methylimidazo[1,2-a]pyridin-6-yl}-4-(piperazin-1-yl)indazole-7-carboxamide] | < 0.1 | > 10 | 1 to 10 | 0.1 to 1 | 0.1 to 1 | 0.1 to 1 | 1 to 10 | 1 to 10
Cc1cn2cc(NC(=O)c3ccc(N4CCNCC4)c4cn(CC5CCO5)nc34)cc(F)c2n1 (stereo not drawn) [Compound 338, N-{8-fluoro-2-methylimidazo[1,2-a]pyridin-6-yl}-2-(oxetan-2-ylmethyl)-4-(piperazin-1-yl)indazole-7-carboxamide] | < 0.1 | > 10 | 1 to 10 | 0.1 to 1 | 0.1 to 1 | 0.1 to 1 | 1 to 10 | 1 to 10
CC(=O)Cn1cc2c(N3CCNCC3)ccc(C(=O)Nc3cc(F)c4nc(C)cn4c3)c2n1 [Compound 339, N-{8-fluoro-2-methylimidazo[1,2-a]pyridin-6-yl}-2-(2-oxopropyl)-4-(piperazin-1-yl)indazole-7-carboxamide] | 0.1 to 1 | > 10 | > 10 | 1 to 10 | 1 to 10 | 1 to 10 | > 10 | > 10
Cc1cn2cc(NC(=O)c3ccc(N4CCNCC4)c4cn(Cc5ccc6[nH]ncc6c5)nc34)cc(F)c2n1 [Compound 340, N-{8-fluoro-2-methylimidazo[1,2-a]pyridin-6-yl}-2-(1H-indazol-5-ylmethyl)-4-(piperazin-1-yl) indazole-7-carboxamide trifluoroacetate] | 0.1 to 1 | > 10 | > 10 | 1 to 10 | 1 to 10 | 1 to 10 | > 10 | > 10
Cc1cn2cc(NC(=O)c3ccc(N4CCNCC4)c4cn(Cc5cn[nH]c5)nc34)cc(F)c2n1 [Compound 341, N-{8-fluoro-2-methylimidazo[1,2-a]pyridin-6-yl}-4-(piperazin-1-yl)-2-(1H-pyrazol-4-ylmethyl)indazole-7-carboxamide] | 0.1 to 1 | > 10 | > 10 | 1 to 10 | 1 to 10 | 1 to 10 | > 10 | > 10
Cc1cn2cc(NC(=O)c3ccc(N4CCNCC4)c4cn(C)nc34)[nH]c(=O)c2n1 [Compound 342, N-{8-hydroxy-2-methylimidazo[1,2-a]pyrazin-6-yl}-2-methyl-4-(piperazin-1-yl) indazole-7-carboxamide] | > 10 | > 10 | > 10 | > 10 | 1 to 10 | 1 to 10 | > 10 | > 10
COc1c(NC(=O)c2ccc(N3CCNCC3)c3cn(C)nc23)cn2cc(C)nc2c1F [Compound 343, N-{8-fluoro-7-methoxy-2-methylimidazo[1,2-a]pyridin-6-yl}-2-methyl-4-(piperazin-1-yl) indazole-7-carboxamide] | < 0.1 | 0.1 to 1 | < 0.1 | < 0.1 | < 0.1 | < 0.1 | < 0.1 | < 0.1
COc1c(NC(=O)c2ccc(N3CCNCC3)c3cn(C)nc23)cc2cn(C)nc2c1C [Compound 344, N-(6-methoxy-2,7-dimethylindazol-5-yl)-2-methyl-4-(piperazin-1-yl) indazole-7-carboxamide trifluoroacetate] | 0.1 to 1 | > 10 | > 10 | 1 to 10 | 1 to 10 | 1 to 10 | > 10 | > 10

Source: patent US20250154169A1, “COMPOUNDS AND METHODS FOR MODULATING SPLICING” (REMIX THERAPEUTICS INC., priority 2021, published 2025)
